1 compound from PMC8946696, “27-Hydroxycholesterol Binds GPER and Induces Progression of Estrogen Receptor-Negative Breast Cancer” (Cancers, 2022) can be followed below.

The target of the assay is T1, G Protein-Coupled Estrogen Receptor (GPER, GPR30) (Homo sapiens, UniProt Q99527).
T1 construct: gene GPER1; plasma membranes of HEK293 cells stably transfected with GPER
Description: [3H]E2 competitive radioligand binding to plasma membranes of GPER-transfected HEK293 cells.

T1 sequence (Q99527 whole entry): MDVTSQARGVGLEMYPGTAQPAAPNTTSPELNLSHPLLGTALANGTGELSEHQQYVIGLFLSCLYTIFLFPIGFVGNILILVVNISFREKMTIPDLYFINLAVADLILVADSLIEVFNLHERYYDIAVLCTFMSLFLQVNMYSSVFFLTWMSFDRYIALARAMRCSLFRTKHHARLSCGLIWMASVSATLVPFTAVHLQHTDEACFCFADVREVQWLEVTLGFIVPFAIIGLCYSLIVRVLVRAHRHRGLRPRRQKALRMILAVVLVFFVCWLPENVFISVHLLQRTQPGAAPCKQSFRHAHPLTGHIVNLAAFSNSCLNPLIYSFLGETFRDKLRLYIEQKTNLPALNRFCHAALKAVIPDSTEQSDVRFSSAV

One may read the IC50 as the concentration that inhibits the measured activity by half. Low readings indicate greater potency, high ones weaker potency. Regarding `C[C@@H](CO)CCC[C@@H](C)[C@H]1CC[C@H]2[C@@H]3CC=C4C[C@@H](O)CC[C@]4(C)[C@H]3CC[C@]12C` [27HC, 27-hydroxycholesterol], the IC50 was in the range of 500 to 800 nM.
